{"source": "ChEMBL document CHEMBL3046922", "about": "“Antioomycete activity of gamma-oxocrotonate fatty acids against P. infestans” (J Agric Food Chem, 2009)", "key": {"Colletotrichum coccodes [1]": {"tested_on": "Colletotrichum coccodes", "assay": "Fungicidal activity against Colletotrichum coccodes CBS 369.75 assessed as one-day-old mycelial growth inhibition at 0.01 uM measured every 24 hr by multiwell plate assay", "assay_type": "functional, organism-based"}, "Phytophthora infestans [2]": {"tested_on": "Phytophthora infestans", "assay": "Antioomycete activity against Phytophthora infestans isolate 208m2 assessed as lysis of zoospores at 100 uM after 24 hr by light microscopy", "assay_type": "functional, organism-based"}, "Phytophthora infestans [3]": {"tested_on": "Phytophthora infestans", "assay": "Antioomycete activity against Phytophthora infestans isolate 208m2 assessed as inhibition of zoospore germination at 3.7 uM after 24 hr by light microscopy", "assay_type": "functional, organism-based"}, "Phytophthora infestans [4]": {"tested_on": "Phytophthora infestans", "assay": "Antioomycete activity against Phytophthora infestans isolate 208m2 assessed as inhibition of zoospore germination at 10 nM after 24 hr by light microscopy", "assay_type": "functional, organism-based"}, "Colletotrichum coccodes [5]": {"tested_on": "Colletotrichum coccodes", "assay": "Fungicidal activity against Colletotrichum coccodes CBS 369.75 assessed as one-day-old mycelial growth inhibition at 100 uM measured every 24 hr by multiwell plate assay", "assay_type": "functional, organism-based"}, "Phytophthora infestans [6]": {"tested_on": "Phytophthora infestans", "assay": "Antioomycete activity against Phytophthora infestans isolate 208m2 expressing GFP assessed as one-day-old mycelial growth inhibition at 1 mM by plate reader analysis", "assay_type": "functional, organism-based"}, "Phytophthora infestans [7]": {"tested_on": "Phytophthora infestans", "assay": "Antioomycete activity against Phytophthora infestans isolate 208m2 expressing GFP assessed as mature (3-weeks-old) mycelial growth inhibition at 1 to 100 uM applied as a drop solution measured after 24 hr by fluorescence stereomicroscopic analysis", "assay_type": "functional, organism-based"}, "Phytophthora infestans [8]": {"tested_on": "Phytophthora infestans", "assay": "Antioomycete activity against Phytophthora infestans isolate 208m2 assessed as zoospore germtube length at 10 nM to 100 uM after 24 hr by light microscopy", "assay_type": "functional, organism-based"}, "Phytophthora infestans [9]": {"tested_on": "Phytophthora infestans", "assay": "Antioomycete activity against Phytophthora infestans isolate 208m2 infected potato plants assessed as decrease in fungal biomass at 100 uM applied on the abaxial leaf surface 2 hr prior to zoospore inoculation measured 3 days after fungal challenge by realtime PCR analysis", "assay_type": "functional"}, "Phytophthora infestans [10]": {"tested_on": "Phytophthora infestans", "assay": "Antioomycete activity against Phytophthora infestans isolate 208m2 infected potato plants assessed as decrease in fungal biomass at 10 uM applied on the abaxial leaf surface 2 hr prior to zoospore inoculation measured 3 days after fungal challenge by realtime PCR analysis", "assay_type": "functional"}, "Solanum tuberosum": {"tested_on": "Solanum tuberosum", "assay": "Phytotoxicity against Solanum tuberosum cv. Desiree (potato) leaves at 1000 uM", "assay_type": "organism-based", "conditions": "in vivo"}, "Phytophthora infestans [11]": {"tested_on": "Phytophthora infestans", "assay": "Antioomycete activity against Phytophthora infestans isolate 208m2 assessed as inhibition of zoospore germination at 100 nM after 24 hr by light microscopy", "assay_type": "functional", "conditions": "isolate 208m2, 24 h"}, "Phytophthora infestans [12]": {"tested_on": "Phytophthora infestans", "assay": "Antioomycete activity against Phytophthora infestans isolate 208m2 assessed as zoospore germination at 1 uM after 24 hr by light microscopy", "assay_type": "functional"}, "Colletotrichum coccodes [13]": {"tested_on": "Colletotrichum coccodes", "assay": "Fungicidal activity against Colletotrichum coccodes CBS 369.75 assessed as one-day-old mycelial growth inhibition at 1 uM measured every 24 hr by multiwell plate assay", "assay_type": "functional", "conditions": "CBS 369.75, 24 h, read-out: GI"}}, "note": "Active and inactive are the calls of the source. The rule behind the calls is not given here."}
{"compound": "CCCCCCCCCCCCC(=O)/C=C/C(=O)O", "note": "[listing 1 of 2 here]", "values": [{"measurement": "growth inhibition (GI)", "setting": "Colletotrichum coccodes [1]", "result": "Active"}, {"measurement": "Activity", "setting": "Phytophthora infestans [2]", "result": "Active"}, {"measurement": "inhibition", "setting": "Phytophthora infestans [3]", "result": "Active"}, {"measurement": "inhibition", "setting": "Phytophthora infestans [4]", "result": "Active"}, {"measurement": "growth inhibition (GI)", "setting": "Colletotrichum coccodes [5]", "result": "Active"}, {"measurement": "growth inhibition (GI)", "setting": "Phytophthora infestans [6]", "result": "Active"}, {"measurement": "growth inhibition (GI)", "setting": "Phytophthora infestans [7]", "result": "Active"}, {"measurement": "Activity", "setting": "Phytophthora infestans [8]", "result": "Active"}]}
{"compound": "CCCCCCCCCCCCC(=O)/C=C/C(=O)[O-].[Na+]", "values": [{"measurement": "inhibition at 100 µM", "setting": "Phytophthora infestans [9]", "result": 95, "unit": "%"}, {"measurement": "inhibition at 10 µM", "setting": "Phytophthora infestans [10]", "result": 80, "unit": "%"}, {"measurement": "Activity", "setting": "Solanum tuberosum", "result": "Non-toxic"}]}
{"compound": "CCCCCCCCCCCCC(=O)/C=C/C(=O)O", "note": "[listing 2 of 2 here]", "values": [{"measurement": "inhibition at 0.1 µM", "setting": "Phytophthora infestans [11]", "result": "> 50", "unit": "%"}, {"measurement": "Activity", "setting": "Phytophthora infestans [12]", "result": "<10", "unit": "%"}, {"measurement": "inhibition of growth at 1 µM", "setting": "Colletotrichum coccodes [13]", "result": 1.5, "unit": "%"}]}
